Measurements from patent US20110112308A1 (NOVARTIS AG, priority 2006, published 2011).

Tests used:
Type in all cases: physicochemical
[1] = Solubility, 24-hour equilibration at room temperature; details: for Solubility: approx. at 25° C.
Method: Aqueous Solubility: A carefully weighted amount (20-50 mg) of sample is dissolved in 1 ml of solvent with 24-hour equilibration at room temperature. The solubility was determined either gravimetrically or by UV-VIS spectrometry. The pH of the clear solution was also measured. However, the difficulty of determining salt solubilities in water should be stressed, since upon dissolution dissociation to the free form is possible, which affects both the solubility and the pH. It's not unlikely that attempts to make solutions of a salt at a concentration well below the reported solubility of the salt to be unsuccessful (for a full discussion see: M. Pudipeddi, A. T. M. Serajuddin, D. J. W. Grant, and P. H. Stahl in “Handbook of Pharmaceutical Salts Properties Selection and Use” page 27 and references therein).

[2] = pH of saturated solution or 1% suspension in water; details: room temperature
Method: pH Value: The pH at room temperature of a saturated solution or 1% suspension of the drug substance in water was recorded.

[3] = Intrinsic dissolution rate, rotation disk method; details: for Intrinsic Dissolution Rate: 37° C., 200 r.p.m.
Method: Intrinsic Dissolution: […] […] Pellets of the other salts remained intact for at least several minutes enabling the determination of the intrinsic dissolution rate. Dissolution rate studies were performed using the rotation disk method ([…] Instrument). A single rotation speed of 200 r.p.m. was used to dissolve drug substance into a 500 mL vessel at 37° C. The solution was continuously pumped through a UV cell measurement and returned to the dissolution vessel.

[4] = Solution stability (HPLC)
Method: (§1) All samples were prepared/diluted to a concentration of 0.2 mg/mL in methanol prior to analysis by HPLC. A freshly prepared sample of each salt was used as the reference standard for external standard calibration analysis.

Solid-state stability = details: for Bulk stability (XRPD): 1 week
Method: as §1

[5] = Stability of mixtures with excipients
Method: as §1

[6] = pH of saturated solution or 1% suspension in water; details: In pH = 6.8 buffer
[7] = 2 mg/mL in methanol, 1 week at 50° C.
[8] = 2 mg/mL in water, 1 week at 50° C.
[9] = 2 mg/mL, 100 mM lactate buffer pH 3.5, 1 week at 50° C.
[10] = 2% in 0.5% HPMC 4000, 1 day at RT
[11] = 2% in 0.5% Klucel HF, 1 day at RT
[12] = 2% in 0.8% Tween 80, 1 day at RT
[13] = 5% solution, 1 day at RT (diluted 1:100 in pH 6.8 buffer)
[14] = Bulk stability, 2 weeks, 50° C.
[15] = Bulk stability, 2 weeks, 50° C./20% water
[16] = Bulk stability, 2 weeks, 50° C./75% r.h.
[17] = Light study, 1200 kLux (300-800 nm)
[18] = Mixture 1: 50% PVP + 50% Crospovidone, 50° C./75% r.h., 2 weeks
[19] = Mixture 2: 50% Starch 1500 + 5% MCC 102, 50° C./75% r.h., 2 weeks
[20] = Mixture 3: 5% PVP + 5% Crospovidone + 10% Starch 1500 + 80% MCC 102, 50° C./75% r.h., 2 weeks
[21] = Mixture 4: 99% Lactose + 1% BHT/BHA, 50° C./75% r.h., 2 weeks
[22] = Mixture 5: 99% Mannitol + 1% BHT/BHA, 50° C./75% r.h., 2 weeks
[23] = Mixture 6: 50% Mannitol + 47% HPCLH21 + 1% BHT/BHA + 2% Magnesium Stearate, 50° C./75% r.h., 2 weeks
[24] = Mixture 7: 50% Cetyl Alcohol + 49% HPCLH21 + 1% Magnesium Stearate, 50° C./75% r.h., 2 weeks
[25] = Mixture 8: 100% PEG 3350, 50° C./75% r.h., 2 weeks

Cc1[nH]c2ccccc2c1CCNCc1ccc(/C=C/C(=O)NO)cc1.O=C(O)/C=C\C(=O)O [Maleate, 1:1 maleate salt of N-hydroxy-3-[4-[[[2-(2-methyl-1H-indol-3-yl)ethyl]amino]methyl]phenyl]-2E-2-propenamide]
aqueous solubility [1]: 2600 µg/mL | solubility in methanol and ethanol, in words [1]: high | solubility in other common / remaining organic solvents, in words [1]: considerable | Solubility ([1]; 0.1N HCl): 700 µg/mL | Solubility ([1]; 2-Propanol): 1600 µg/mL | Solubility ([1]; Acetone): 3000 µg/mL | Solubility ([1]; Ethanol): 7200 µg/mL | Solubility ([1]; Ethyl acetate): 5600 µg/mL | Solubility ([1]; Methanol): 57000 µg/mL | Solubility ([1]; Propylene glycol): 32400 µg/mL | Solubility ([1]; Water): 2600 µg/mL | approximate solubility in water as % ([1]; estimated from mg/mL assuming solution density 1 g/mL): approximately 0.3% | Solubility ([1]; pH = 6.8 buffer): 1500 µg/mL | pH of saturated solution [2]: 5.54 | intrinsic dissolution (rate), in words [3]: good | Intrinsic Dissolution Rate ([3]; HCl 0.1N): 1.00 mg min^−1 cm^−2 | Intrinsic Dissolution Rate ([3]; Water, free base pellet disintegrated, not true intrinsic rate): 0.32 mg min^−1 cm^−2 | pH of initial mixture ([4]; 2 mg/mL in 100 mM lactate buffer, pH 3.5): 3.51 | % DP (total degradation products) [4, 7]: 0.83 % area | assay [4, 7]: [100.7] | pH of initial mixture ([4]; 2 mg/mL in water): 5.40 | % DP (total degradation products) [4, 8]: 0.80 % area | CL (appearance) [4, 8]: A↓ | assay [4, 8]: [97.26] | % DP (total degradation products) [4, 9]: 1.59 % area | CL (appearance) [4, 9]: A↓* | assay ([4]; 2 mg/mL, 100 mM lactate buffer pH 3.5, 1 week at 50° C., external standard): [97.48] | % DP (total degradation products) ([4]; 2% in 0.5% CMC, 1 day at RT): 0.58 % area | CL (appearance) ([4]; 2% in 0.5% CMC, 1 day at RT): A↓↓ | assay ([4]; 2% in 0.5% CMC, 1 day at RT): [77.42] | % DP (total degradation products) [4, 10]: 0.60 % area | assay [4, 10]: [94.63] | % DP (total degradation products) [4, 11]: 0.55 % area | assay [4, 11]: [96.78] | % DP (total degradation products) [4, 12]: 0.66 % area | assay [4, 12]: [96.83] | % DP (total degradation products) [4, 13]: 0.67 % area | CL (appearance) [4, 13]: A↓ | assay [4, 13]: [97.92] | stability characteristics, in words ([4]; both in solution and in the solid state): very good stability | Unstressed (% Area) ([4]; unstressed baseline of the stability study): 99.48% Area | Bulk stability (XRPD) (Solid-state stability; 80° C.): no change | Bulk stability (XRPD) (Solid-state stability; 80° C./75% r.h.): no change | % DP (total degradation products) (Solid-state stability; [14]): 0.71 % area | assay (Solid-state stability; [14]): [102.2] | % DP (total degradation products) (Solid-state stability; [15]): 0.71 % area | assay (Solid-state stability; [15]): [101.1] | % DP (total degradation products) (Solid-state stability; [16]): 0.58 % area | assay (Solid-state stability; [16]): [100.0] | % DP (total degradation products) (Solid-state stability; [17]): 3.02 % area | CL (appearance) (Solid-state stability; [17]): D (D = strong discoloration) | assay (Solid-state stability; [17]): [96.72] | % DP (total degradation products) [5, 18]: 0.5 % area | % DS (drug substance) [5, 18]: 99.5 % area | % DP (total degradation products) [5, 19]: 0.3 % area | % DS (drug substance) [5, 19]: 99.7 % area | % DP (total degradation products) [5, 20]: 0.3 % area | % DS (drug substance) [5, 20]: 99.7 % area | % DP (total degradation products) [5, 21]: 0.3 % area | % DS (drug substance) [5, 21]: 99.7 % area | % DP (total degradation products) [5, 22]: 0.3 % area | % DS (drug substance) [5, 22]: 99.7 % area | % DP (total degradation products) [5, 23]: 0.3 % area | % DS (drug substance) [5, 23]: 99.7 % area | % DP (total degradation products) [5, 24]: 0.3 % area | % DS (drug substance) [5, 24]: 99.7 % area | % DP (total degradation products) [5, 25]: 0.4 % area | % DS (drug substance) [5, 25]: 99.6 % area | % DP (total degradation products) ([5]; Standard, freshly prepared): 0.2 % area | % DS (drug substance) ([5]; Standard, freshly prepared): 99.8 % area | stability with all excipient mixtures tested, in words ([5]; after 2 weeks at 50° C./75% r.h.): very good stability | pH of saturated solution [6]: 5.70
